Publication PMC10624687 (Nature Communications, 2023)

Key:
[1] = biological target: T1, HsClpP (mitochondrial caseinolytic protease P) (Homo sapiens, UniProt Q16740); experiment: X-ray crystal structure at […] Å; DSF (ΔTm […] °C); EC50 from FITC-casein FI protease assay; CETSA; assay type: biochemical; set-up: gene CLPP; HsClpPΔ56 (N-terminus 56 amino acids truncated)
[2] = biological target: T2, HsClpP (mitochondrial caseinolytic protease P) (Homo sapiens, UniProt Q16740, W146I); experiment: biochemical
T2 construct: gene CLPP
T2 sequence (Q16740 57-277 W146I): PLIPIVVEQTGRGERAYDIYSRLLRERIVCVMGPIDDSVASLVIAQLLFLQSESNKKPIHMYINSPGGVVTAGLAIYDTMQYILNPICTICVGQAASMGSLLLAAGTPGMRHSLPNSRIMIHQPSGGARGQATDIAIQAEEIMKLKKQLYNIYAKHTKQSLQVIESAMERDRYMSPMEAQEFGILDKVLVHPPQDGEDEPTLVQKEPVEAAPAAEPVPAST

[3] = biological target: T3, HsClpP (mitochondrial caseinolytic protease P) (Homo sapiens, UniProt Q16740, Y118A); experiment: PAGE-based α-casein degradation assay; NanoDSF; assay type: biochemical
T3 construct: gene CLPP
T3 sequence (Q16740 57-277 Y118A): as the sequence (Q16740 57-277 W146I) above, with Y62A, I90W counted along it

[4] = biological target: SaClpP (Staphylococcus aureus ClpP) (Staphylococcus aureus, UniProt Q2G036, I91W); experiment: PAGE-based α-casein hydrolysis activation assay; DSF; assay type: biochemical
[5] = biological target: T1, HsClpP (mitochondrial caseinolytic protease P); experiment: biochemical; set-up: gene CLPP

T1 sequence (Q16740 57-277): as the sequence (Q16740 57-277 W146I) above, with I90W counted along it

O=C(NCc1ccc(Br)cc1)N1CCN(Cc2cc(F)cc(F)c2)CC1 [ZK53]
EC50 [1]: 0.22 µM | EC50 [2]: 11.8 µM | PAGE-based α-casein degradation assay; NanoDSF [3]: ZK53 is still effective to promote Y118A ClpP for α-casein degradation in PAGE assay | EC50 [4]: 5.4 µM

O=C(COc1ccc(Cl)cc1)N1CCN(Cc2cc(F)cc(F)c2)CC1 [ZK11]
EC50 [2]: 42.4 µM | EC50 [5]: 0.45 µM | EC50 [4]: 8.4 µM
